Assay results from patent publication US20220395500A1, “SMALL MOLECULE ACTIVATORS OF INTERFERON REGULATORY FACTOR 3 AND METHODS OF USE THEREOF” (Neuralexo, Inc., priority 2020, published 2022).

Key:
[1] = system: IRF-Lucia luciferase reporter (ISRE) in THP1-Dual cells; assay: THP1-Dual IRF-Lucia luciferase reporter assay (ISRE activation); type: cell-based, human; settings: THP1-Dual
Summary of the method: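 THP1-Dual cells were differentiated with 5 ng/mL PMA for 48 h at 37° C, washed, then treated with compounds at 10 μM final for 24 h; LPS at 313 ng/mL served as control. ISRE-driven Lucia luciferase in supernatant was read by luminescence.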

[2] = THP1-Dual cytotoxicity (Cell Titer Glo, ATP); type: cell-based, human; settings: human, THP1-Dual cells
Summary of the method: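 Human THP1-Dual cells were treated across an 8-point dose-response range. Cytotoxicity was measured in-plate by CellTiter-Glo luminescence, which quantifies ATP as a marker of metabolically active cells, and CC50 was taken as the 50% cytotoxic concentration.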

[3] = system: IRF-Lucia luciferase reporter (ISRE) in J774-Dual cells; assay: J774-Dual IRF-Lucia luciferase reporter assay (ISRE activation); type: cell-based, mouse; settings: J774-Dual
Experimental: First, optimal assay conditions and assay quality in 384-well format were determined. As mentioned, the mouse macrophage J774 cell line (J774-Dual, InvivoGen) stably transfected with the same inducible reporters described above (e.g., IRF-Lucia luciferase and NF-κB-SEAP) was used. The responsiveness of the J774-Dual cell line was investigated in an array of assay conditions to obtain sensitive and reproducible results for the activation of the IRF and NF-κB reporters. An optimal plating density and conditions for these cells was established for these cells in a 384-well format. Assay work-flow is similar to that discussed above for the THP1-Dual assay without a need for cell differentiation. Thus, cells are seeded directly in growth medium and incubated at 37° C. in a 5% C02 incubator for 24 hours prior to the programmed treatments being added as described herein.
The primary high throughput screen used the HTS platform of human THP1 monocyte cells containing the IRF-Lucia luciferase and NFκB-SEAP (secreted embryonic alkaline phosphatase) dual reporter (THP1-Dual, Invivogen), enabling the simultaneous study of the IRF and NFκB signaling pathways respectively. As discussed, the Lucia luciferase reporter gene is under the control of an ISG54 (interferon-stimulated gene) minimal promoter in conjunction with five interferon-stimulated response elements (ISRE). The SEAP gene is driven by an IFNβ minimal promoter fused to five copies of the NFκB consensus transcriptional response element and three copies of the c-Rel binding site. Both IRF-Lucia luciferase and NFκB-SEAP reporter proteins are secreted and readily measurable in the cell culture supernatant when using QUANTI-Luc™ and QUANTI-Blue™ detection reagents, respectively. Identified “hits” were confirmed in a secondary screen with an 8-point dose response curve. Hits were further screened for activity in the mouse using the mouse J774 macrophage-like cell line containing the identical reporter constructs (J774-Dual, Invivogen).
The OTRADI Small Molecule Library of approximately 246,000 diverse compounds (see below for description) was screened using the THP1-Dual based HTS platform described above. All transfer steps in the screen are fully automated, thus reducing variability. Primary screening included a single data point or dose for each molecule. After data normalization was applied for each assay run, “hit” selection was performed on the plates that pass the quality control (QC) criterion. Hits were defined as samples having values above the activity cutoff determined based on noise level of the assay to reduce false positive rates. In the pilot study discussed above this activity value was >3σ above the ISRE mean with the added criteria of NFκB activation being lower than […] from the mean to identify IRF selective compounds. The ratio of ISRE:NFκB activity was also calculated as a selectivity index for prioritizing hit selection. Primary hits underwent secondary screening to determine the 50% effective concentration (EC50) and 50% cytotoxic concentration (CC50) of these agents using an 8-point dose-response curve in the human THP1-Dual cells. Cytotoxicity was measured in the plate using Cell Titer Glo (Promega). Identified candidate compounds were further screened (orthogonal screen) for cross species activity in the validated mouse J774-Dual assay using an 8-point dose-response format to determine EC50 and CC50 values as well as ISRE:NFκB ratios. A general process flow for the experimental design laid out above is depicted at FIG. 12.

SH-SY5Y cells = assay: Gene induction in SH-SY5Y cells (qtPCR); type: cell-based, human; settings: 20 μM, 3 hours, preliminary results
Experimental: FIG. 11 is a bar graph showing that the human-specific IRF activator AV-C induces robust IFIT1 and RSAD2 expression, with no increase in TNF expression. SH-SY5Y cells were treated with 20 μM AV-C for 3 hours. RNA was collected from cell pellets and qtPCR was performed with indicated primers. Values at FIG. 11 are normalized to actin and presented as fold change over vehicle control.
To determine if the human specific IRF activator, AV-C could induce IRF activated genes, the human neuroblastoma cell line SH-SY5Y was stimulated with 20 μM AV-C for 3 hours. […] Specifically, as mentioned, SH-SY5Y cells were treated with 20 μM AV-C for 3 hours. RNA was collected from cell pellets and qtPCR was performed with indicated primers. Values at FIG. 11 are normalized to actin and presented as fold change over vehicle control.

EC50 ([1]; Homo sapiens, THP1-Dual control compound, 8-point dose response, read-out: EC50 ISRE activation): 5.3 µM
Structure (SMILES): CC(C)c1nnc(N2C(=O)c3oc4ccccc4c(=O)c3C2c2ccccc2F)s1 (stereo not drawn) [AV-C, 1-(2-fluorophenyl)-2-(5-isopropyl-1,3,4-thiadiazol-2-yl)-1,2-dihydrochromeno[2,3-c]pyrrole-3,9-dione, reference compound]
ISRE response, % of LPS maximum ([1]; 25 μM): 75%
IRF signal intensity relative to LPS control ([1]; at its EC50): ~10%
CC50 ([2]; THP1-Dual control compound, 8-point dose response, read-out: CC50): 7.9 µM
selectivity ratio ([2]; read-out: Selectivity Index (CC50/EC50) (text: toxicity index)): 1.5
IRF activation in mouse cells [3]: minimal IRF activation
ISRE response, % of LPS maximum ([3]; 25 μM): 10%
IFIT1 and RSAD2 expression (SH-SY5Y cells): increased
TNF expression (SH-SY5Y cells): no increase
